Results taken from US6383528B1 (Yuyu International Co., Ltd., priority 1997, dated 2002).

Legend:
[1] = tested on: mouse acute thrombus model; test: Recovery rate in the mouse acute thrombus model (collagen + epinephrine); format: in vivo; conditions: for Recovered Mouse, Number of Mouse: recovery within 15 minutes
Method: An Increase in Recovery Rate in the Mouse Acute Thrombus Model
One hour after the final administration of the regimen, the mixed solution containing collagen and epinephrine (collagen 1100 μg+epinephrine 110 μg/10 ml of saline solution/kg) was injected into the vein in the tail. The status of paralysis or death from pulmonary infarction, and the recovery therefrom were duly recorded.
As in the experiment above if the mixed solution comprising collagen and epinephrine was infected into the vein a large of amount of thrombus was generated shortly thereafter with the result of an occlusion in the pulmonary artery. Within one minute after the injection, almost every part of the body was in paralysis with the enlargement of a pupil. Dyspnea occurred followed by a seizure. Within 5 minutes, approximately 70˜80% of the mouse were deceased. As to the remainder, almost every mouse were dead within 15 minutes or in a continued paralysis.

[2] = patients, first 3 months of treatment; cited from earlier work
[3] = tested on: femur marrow cells; test: Number of bone marrow cells after 16 weeks of administration and 2 weeks of withdrawal; format: in vivo; conditions: rats, 16 weeks then 2 weeks of withdrawal; combination 5:2
Method: The Changes in the Number of the Bone Marrow Cells after 16 Weeks of the Administration of the Pharmaceutical Composition, Followed by 2 Weeks of Withdrawal
Thereafter, the number of bone marrow cells at femur was measured.

[4] = tested on: leukocytes in rat; test: Leukocyte number and differential ratios after 16 weeks of administration and 2 weeks of withdrawal; format: in vivo; conditions: rats
Method: Rats were administered with the same regimens as in Experiment 6 for the duration of 16 weeks, and those with two weeks of withdrawal were separately maintained.

[5] = tested on: thrombus formation at the cotton thread in the A-V Shunt; test: Thrombus formation by arterio-venous shunt (A-V Shunt); format: in vivo; conditions: female rats; for Thrombus Dry Condition Suppression Rate (%) / Thrombus Wet Condition Suppression Rate (%): vs control rats
Method: Thrombus Formation by Arterio-Venous Shunt (A-V Shunt hereinafter) and the Effects on the Platelet Aggregation […] Thereafter, Table 7 was tabulated with the measured weights of the thrombus formation at the cotton thread in the A-V Shunt. At this point, the weights of thrombus were measured in terms of the wet weight immediately after the experiment, and dry weight after complete drying.

[6] = tested on: platelet aggregation induced by 1×10^−5 M ADP; test: Ex vivo platelet aggregation suppression effect; conditions: female rats, ADP 1×10^−5 M
Source text: Ex Vivo Platelet Aggregation Suppression Effect
One hour after the final administration on the specimen, the rats were anesthetized. For preventing blood coagulation, the blood sample was collected using a syringe with the anti-coagulant, 3.8% Sodium Citrate solution. Thereafter, the effects oil the platelet aggregation induced by 1×10^−5 M ADP were studied.

[7] = tested on: platelet aggregation induced by ADP 3×10^−5M in PRP; test: Ex vivo platelet aggregation in rats with A-V Shunt; conditions: for Aggregation Rate (%) 2 Minutes / Aggregation Rate (%) 3 Minutes / Aggregation Rate (%) Maximum: control maximum set at 100
Method: The Effect on Platelet Aggregation in the A-V Shunt of Rats
After the administration of the same regimens used in Experiment 3 for the duration of 9 days, the weights of thrombus formations at the A-V Shunt were measured as the sample of the blood therefrom was collected for the purposes of studying the effect on the ex vivo platelet aggregation after the AV-Shunt. In particular, to the PRP (supernatant after the centrifuge of the blood sample for 10 minutes at 200×g) prepared from the respective blood sample, ADP 3×10^−5M, which is the platelets aggregation inducer, were added for the purposes of inducing aggregation.
In order to study the ex vivo platelet aggregation effect of the rats' blood without A-V Shunt, the concentration of ADP lower than 1×10^−5M was used. With the maximum platelet aggregation rate of rats in the control group with A-V Shunt set at 100, various aggregation rates were compared.

[8] = tested on: femur marrow cells; test: Histological examination of the marrow cells after 16 weeks and 2 weeks of withdrawal; format: in vivo; conditions: rats, 16 weeks then 2 weeks of withdrawal, femur marrow histology
Source text: Histological Examination of the Marrow Cells after the Administration of the Pharmaceutical Composition for 16 Weeks, Followed by 2 Weeks of Withdrawal
Thereafter, the marrow cells were histolosically examined.

[9] = tested on: femur marrow cells; test: Number of bone marrow cells after 16 weeks of administration; format: in vivo; conditions: rats, ticlopidine vs control, combinations vs ticlopidine alone
Method: A Change in the Number of Bone Marrow Cells after the Administration of the Pharmaceutical Composition for the Duration of 16 Weeks. […] Thereafter, the number of bone marrow cells was measured. In detail, for the purposes of measuring the numbers of the precursor cells of leukocytes, the femur part was incised with the elimination of the surrounding muscle tissues. Then, both sides of epiphysis were incised, from which approximately 2 cm of femur was obtained. […] After removing the supernatant, 1 ml of saline solution was added to the precipitated cell layer. […] Then, removing the supernatant once again, 0.5 ml of saline solution was added to the precipitated cell layer and mixed. The drop therefrom was added to the Cytometer, and the number of cells in the RRRRR 5 part (4 corners and the center) was counted. Using the following formula, the number of marrow cells were calculated: Counted Number×50×10×10^3=Number of white blood cell precursor/femur.

[10] = tested on: femur marrow cells; test: Histological examination of the marrow cells after 16 weeks; format: in vivo; conditions: rats, femur marrow histology ×400
Source text: Histological Examination of the Marrow Cells after the Administration of the Pharmaceutical Composition for 16 Weeks […] Thereafter, the marrow cells was histologically examined. […] The femur so extracted was decalcified with the decalcification solution and embedded with paraffin after the ordinary course of the histological process. The femur tissue so embedded with paraffin was sliced at a thickness of 4 μm, followed by hematoxylin and eosins. Thereafter, the slide was examined with the light microscope at 400×.

[11] = tested on: female rats; test: Prolongation of the bleeding time (tail incision); format: in vivo; conditions: for Bleeding Time: female rats
Method: Prolongation of the Bleeding Time
One hour after the final administration of the regimen, 250 mg/kg of ketamine was injected into muscle tissue for anesthesia. 2 mm from the tail end was incised with the razor blade, after which the blood therefrom was blotted with the filter paper at the interval of 5 second to the point of the hemorrhage stoppage.

[12] = tested on: leukocytes in rat; test: Leukocyte number and differential ratios after 16 weeks of administration; format: in vivo; conditions: rats
Method: Bellefonte, Pa.). […] The changes due to the dosage amount and blending ratio were set as follows. […] On the other hand, one tablet of the Ginkgo biloba extract is 40 mg, 80 mg, 120 mg with a daily dosage of 120 mg to 240 mg. […] [table] […] After anesthesia, blood was collected through the abdominal aorta, and the number of white blood cells were counted using the Coulter Counter. Using the cytochemical dyeing method, the ratios of neutrophil, eosinophil, basophil, macrophage and lymphocytes were measured.

[13] = 16 weeks P.O. then 2 weeks of withdrawal, 300 or 300 + 120 mg/kg/day, mean ± S.E.
[14] = 50 mg/kg/day for 9 days, 50 mg/kg/day
[15] = 50 mg/kg/day for 9 days, listed as Ticlopidine (T), 50 mg/kg/day
[16] = 100 mg/kg/day for 9 days, 100 mg/kg/day
[17] = 100 mg/kg/day for 9 days, listed as Ticlopidine (T), 100 mg/kg/day
[18] = 50 mg/kg/day for 9 days, listed as Ticlopidine (T)
[19] = 100 mg/kg/day for 9 days, listed as Ticlopidine (T)
[20] = 16 weeks P.O., ticlopidine 300 mg/kg/day alone or + Ginkgo extract 60/120/240 mg/kg/day, mean ± S.E.

Clc1ccccc1CN1CCc2sccc2C1 [Ticlopidine, 5-[(2-chlorophenyl)methyl]-4,5,6,7-tetrahydrothieno[3,2-C]pyridine]
Recovered Mouse, % ([1]; 50 mg/kg/day for 3 days): 38% | Recovered Mouse, Number of Mouse ([1]; 50 mg/kg/day for 3 days): 6 | Recovered Mouse, % ([1]; 100 mg/kg/day for 3 days): 47% | Recovered Mouse, Number of Mouse ([1]; 100 mg/kg/day for 3 days): 7 | incidence rate of toxicity (neutropenia, agranulocytosis) [2]: 0.8% | number of marrow cells at femur (FIG. 2), words [3]: recovered to the normal level | Basophil (%) [4, 13]: 0.3 ± 0.1% | Eosinophil (%) [4, 13]: 2.7 ± 0.2% | Lymphocyt (%) [4, 13]: 77.8 ± 0.5% | Macrophage (%) [4, 13]: 3.5 ± 1.0% | Neutrophil (%) [4, 13]: 15.9 ± 1.7 % | Total Leukocyte (×10^3/μl) ([4]; 16 weeks P.O. then 2 weeks of withdrawal, ticlopidine 300 mg/kg/day alone or + Ginkgo extract 120 mg/kg/day (5:2), mean ± S.E.): 10.3 ± 1.2 ×10^3/μl | number of neutrophil / leukocytes after withdrawal compared with the control group ([4]; 16 weeks then 2 weeks of withdrawal): normal recovery | Thrombus Dry Condition Weight ([5]; 50 mg/kg/day for 9 days): 9.53 mg | Thrombus Wet Condition Weight ([5]; 50 mg/kg/day for 9 days): 35.03 mg | Thrombus Dry Condition Suppression Rate (%) [5, 14]: 25% | Thrombus Wet Condition Suppression Rate (%) [5, 14]: 26% | Thrombus Dry Condition Suppression Rate (%) [5, 15]: 25 ± 21% | Thrombus Wet Condition Suppression Rate (%) [5, 15]: 26 ± 19% | Thrombus Dry Condition Weight ([5]; 100 mg/kg/day for 9 days): 8.78 mg | Thrombus Wet Condition Weight ([5]; 100 mg/kg/day for 9 days): 30.45 mg | Thrombus Dry Condition Suppression Rate (%) [5, 16]: 31% | Thrombus Wet Condition Suppression Rate (%) [5, 16]: 36% | Thrombus Dry Condition Suppression Rate (%) [5, 17]: 31 ± 12% | Thrombus Wet Condition Suppression Rate (%) [5, 17]: 36 ±10% | Suppression Rate (%) (Avg + SD) ([6]; 100 mg/kg/day for 3 days, 100 mg/kg/day): 67% | Suppression Rate (%) (Avg + SD) ([6]; 100 mg/kg/day for 3 days, listed as Ticlopidine (T), 100 mg/kg/day): 67.06 ± 16.25 % | Suppression Rate (%) (Avg + SD) ([6]; 200 mg/kg/day for 3 days, 200 mg/kg/day): 98% | Suppression Rate (%) (Avg + SD) ([6]; 200 mg/kg/day for 3 days, listed as Ticlopidine (T), 200 mg/kg/day): 97.97 ± 4.53 % | Time (Minute) Maximum (time to maximum aggregation) ([7]; 50 mg/kg/day for 9 days): 1.8 min | Time (Minute) Total (complete de-aggregation) ([7]; 50 mg/kg/day for 9 days): 4.33 min | Aggregation Rate (%) 2 Minutes ([7]; 50 mg/kg/day for 9 days): 74% | Aggregation Rate (%) 3 Minutes ([7]; 50 mg/kg/day for 9 days): 45% | Aggregation Rate (%) Maximum ([7]; 50 mg/kg/day for 9 days): 78% | Aggregation Rate (%) 2 Minutes [7, 18]: 74.4% | Aggregation Rate (%) 3 Minutes [7, 18]: 45.8% | Aggregation Rate (%) Maximum [7, 18]: 78.2% | Time (Minute) Maximum (time to maximum aggregation) ([7]; 100 mg/kg/day for 9 days): 1.5 min | Time (Minute) Total (complete de-aggregation) ([7]; 100 mg/kg/day for 9 days): 3.4 min | Aggregation Rate (%) 2 Minutes ([7]; 100 mg/kg/day for 9 days): 62% | Aggregation Rate (%) 3 Minutes ([7]; 100 mg/kg/day for 9 days): 21% | Aggregation Rate (%) Maximum ([7]; 100 mg/kg/day for 9 days): 72% | Aggregation Rate (%) 2 Minutes [7, 19]: 62.9% | Aggregation Rate (%) 3 Minutes [7, 19]: 21.4% | Aggregation Rate (%) Maximum [7, 19]: 72.6% | Megakaryocyte [8]: increased almost to the point of the control group | number of white blood cell precursor at marrow (femur marrow cells, FIG. 1), words [9]: significant reduction | Band-granulocyte [10]: no change | Cellularity (density of the marrow cells) [10]: malignant vacuolation | Megakaryocyte [10]: decreased | Myelocyte [10]: significantly decreased | bleeding time increase from that in the control group ([11]; 50 mg/kg): 1.5 times | bleeding time increase from that in the control group ([11]; 100 mg/kg): 2 times | Bleeding Time ([11]; 50 mg/kg/day for 5 days): 1546 ± 332 s | Bleeding Time ([11]; 100 mg/kg/day for 5 days): 2023 ± 872 s | eosinophil, basophil, macrophage or lymphocyte compared with the control group ([12]; 16 weeks): not significant differences | white blood cells in the blood compared with the control group ([12]; 16 weeks): slight tendency of a decrease | Total Leukocyte (×10^3/μl) ([12]; 16 weeks P.O. in drinking water, ticlopidine 300 mg/kg/day alone or + Ginkgo extract 60 (5:1), 120 (5:2), 240 (5:4) mg/kg/day, mean ± S.E.): 9.3 ± 1.3 ×10^3/μl | Basophil (%) [12, 20]: 1.7 ± 0.2% | Eosinophil (%) [12, 20]: 2.0 ± 0.4% | Lymphocyte (%) [12, 20]: 80.4 ± 1.6% | Macrophage (%) [12, 20]: 5.5 ± 0.8% | Neutrophil (%) [12, 20]: 10.5 ± 1.1 % | Neutrophil (%) ([12]; 16 weeks P.O., ticlopidine 300 mg/kg/day alone or + Ginkgo extract 60/120/240 mg/kg/day, mean ± S.E., listed as ticlopidine): 10.5±1.1%
